Reference: ChEMBL document CHEMBL3228010, “Potential antitumor agents. 29. Quantitative structure-activity relationships for the antileukemic bisquaternary ammonium heterocycles” (J Med Chem, 1979)
Several values for one entry are separate records, joined by “and”; a condition that tells them apart may be missing. Equal values may be shown once.

Key:
[1] = species: Bos taurus; test: Displacement of ethidium from calf thymus DNA by fluorimetric method
[2] = Displacement of ethidium from poly[d(A-T)]-poly[d(A-T)] DNA by fluorimetric method
[3] = tested on: L1210; test: Antitumor activity against mouse L1210 cells […] in ip dosed C3H X DBA2 F1 hybrid mouse on day 0 and dosed at LD10 level once daily on days 1 to 5 assessed as increase in life span relative to control; type: functional
[4] = Displacement of ethidium from poly[d(G-C)]-poly[d(G-C)] DNA (unknown origin) by fluorimetric method
[5] = tested on: Mus musculus; test: Toxicity in ip dosed C3H X DBA2 F1 hybrid mouse […] with mouse L1210 cells on day 0 and dosed once daily on days 1 to 5 measured after 50 days; type: organism-based; details: in vivo, 1200 h
[6] = Lipophilic-hydrophilic balance, Rm of the compound by partition chromatography; type: physicochemical
[7] = tested on: L1210; test: Antitumor activity against mouse L1210 cells […] in ip dosed C3H X DBA2 F1 hybrid mouse on day 0 and dosed once daily on days 1 to 5 assessed as increase in life span relative to control; type: functional

Structure (SMILES)	C50 [1]	C50 [2]	log(ILSmax) [3]	C50 [4]	LD10 [5] [mg/kg]	Rm [6]	D40 [7] [mg/kg]
CC[n+]1ccc(Nc2ccc(NC(=O)c3ccc(Nc4cc[n+](CC)c5ccc(N)cc45)cc3)cc2)cc1.[Br-].[Br-]	0.69 µM	0.1 µM	2.25	1.04 µM	10	0.22	0.9
C[n+]1cccc2cc(NC(=O)c3ccc(NC(=O)c4ccc(C(=O)Nc5ccc6c(ccc[n+]6C)c5)cc4)cc3)ccc21.Cc1ccc(S(=O)(=O)[O-])cc1.Cc1ccc(S(=O)(=O)[O-])cc1	0.37 µM	0.28 µM	2.04	0.36 µM	100	-0.7	39
CCCC[n+]1ccc(Nc2ccc(NC(=O)c3ccc(Nc4cc[n+](CCCC)c5ccccc45)cc3)cc2)cc1.[Br-].[Br-]	2.1 µM	0.19 µM	<1.4	2.8 µM	11	1.14	
C[n+]1ccc(Nc2ccc(NC(=O)CCCCCCC(=O)Nc3ccc(Nc4cc[n+](C)cc4)cc3)cc2)cc1.[Br-].[Br-]	40 µM	20 µM	<1.4	75 µM	30	0.59	
CC[n+]1cc(-c2ccc(NC(=O)c3ccc(C(=O)Nc4ccc(-c5c[n+](CC)c(N)nc5N)cc4)cc3)cc2)c(N)nc1N.Cc1ccc(S(=O)(=O)[O-])cc1.Cc1ccc(S(=O)(=O)[O-])cc1	0.84 µM	0.45 µM	2.17	2.1 µM	15	-0.19	3.5
C[n+]1cccc(NC(=O)c2ccc(NC(=O)c3ccc(C(=O)Nc4ccc(C(=O)Nc5ccc[n+](C)c5)cc4)c(N)c3)cc2)c1.Cc1ccc(S(=O)(=O)[O-])cc1.Cc1ccc(S(=O)(=O)[O-])cc1	0.53 µM	0.37 µM	2.17	0.93 µM	20	-0.63	3.9
COc1cc(C(=O)Nc2ccc[n+](C)c2)ccc1NC(=O)c1ccc(C(=O)Nc2ccc(C(=O)Nc3ccc[n+](C)c3)cc2OC)cc1.Cc1ccc(S(=O)(=O)[O-])cc1.Cc1ccc(S(=O)(=O)[O-])cc1	0.84 µM	0.72 µM	1.89	0.9 µM	25	-0.41	13
C[n+]1ccc(Nc2ccc(/C=C/c3ccc(Nc4cc[n+](C)c5ccc(N)cc45)cc3)cc2)cc1.[Br-].[Br-]	0.38 µM	0.15 µM	2.19	0.53 µM	16	0.31	1.8
C[n+]1cccc(NC(=O)c2ccc(NC(=O)c3ccc(C(=O)Nc4ccc(C(=O)Nc5ccc[n+](C)c5)c5ccccc45)cc3)cc2)c1.Cc1ccc(S(=O)(=O)[O-])cc1.Cc1ccc(S(=O)(=O)[O-])cc1	2.2 µM	2.3 µM	1.65	2.6 µM	75	0.08	72
C[n+]1ccc(Nc2ccc(NC(=O)/C=C/c3ccc(C(=O)Nc4ccc(Nc5cc[n+](C)cc5)c(N)c4)cc3)cc2N)cc1.Cc1ccc(S(=O)(=O)[O-])cc1.Cc1ccc(S(=O)(=O)[O-])cc1	1.5 µM	0.08 µM	2.3	1.5 µM	6.7	0.04	1.4
C[n+]1ccc(Nc2ccc(/C=C/c3ccc(Nc4cc[n+](C)c5ccccc45)cc3)cc2)cc1.[Br-].[Br-]	0.34 µM	0.13 µM	1.89	0.67 µM	23	0.61	12
C[n+]1cccc(NC(=O)c2ccc(NC(=O)c3ccc(C(=O)Nc4ccc(-c5ccc(-c6ccc(-c7ccc[n+](C)c7)cc6)cc5)cc4)cc3)cc2)c1.Cc1ccc(S(=O)(=O)[O-])cc1.Cc1ccc(S(=O)(=O)[O-])cc1	0.63 µM	0.5 µM	2.25	0.84 µM	14	-0.4	2.5
C[n+]1ccc(Nc2ccc(C(=O)Nc3ccc(Nc4cc[n+](C)c5cc(N)ccc45)cc3)c(N)c2)cc1.Cc1ccc(S(=O)(=O)[O-])cc1.Cc1ccc(S(=O)(=O)[O-])cc1	0.44 µM	0.14 µM	2.38	0.77 µM	20	-0.12	1.7
CC[n+]1ccc(Nc2ccc(NC(=O)c3ccc(Nc4cc(C)[n+](CC)c5ccc(N)cc45)cc3N)cc2)cc1.[I-].[I-]	0.5 µM	0.31 µM	1.86	1.17 µM	20	0.34	7.2
C[n+]1ccc(Nc2ccc(C(=O)Nc3ccc(Nc4cc[n+](C)c5ccc(N)cc45)c(N)c3)cc2)cc1.Cc1ccc(S(=O)(=O)[O-])cc1.Cc1ccc(S(=O)(=O)[O-])cc1	1.58 µM	0.25 µM	2.03	2.68 µM	9	-0.15	1.1
C[n+]1ccc(Nc2ccc(NC(=O)c3ccc(C(=O)Nc4ccc(Nc5cc[n+](C)c(N)n5)cc4)cc3)cc2)nc1N.Cc1ccc(S(=O)(=O)[O-])cc1.Cc1ccc(S(=O)(=O)[O-])cc1	0.45 µM	0.29 µM	2.2	0.64 µM	75	-0.64	8.6
C[n+]1ccc(Nc2ccc(C(=O)Nc3ccc(Nc4cc[n+](C)c5ccccc45)cc3N)cc2)cc1.[Br-].[Br-]	1.87 µM	0.64 µM	<1.4	2.05 µM	7	0.35	
Cc1cc(Nc2ccc(NC(=O)c3ccc(C(=O)Nc4ccc(C(=O)Nc5ccc[n+](C)c5)cc4)cc3)cc2)nc(N)[n+]1C.[I-].[I-]	0.4 µM	0.26 µM	<1.4	0.49 µM	20	-0.6	
CCC[n+]1ccccc1-c1ccc(NC(=O)c2ccc(C(=O)Nc3ccc(-c4cccc[n+]4CCC)cc3)cc2)cc1.Cc1ccc(S(=O)(=O)[O-])cc1.Cc1ccc(S(=O)(=O)[O-])cc1	2.2 µM	0.83 µM	<1.4	2.9 µM	11	0.4	
C[n+]1ccc(Nc2ccc(NC(=O)c3ccc(C(=O)Nc4ccc(C(=O)Nc5ccc[n+](C)c5)cc4)cc3)cc2)cc1	0.63 µM and 0.84 µM	0.34 µM and 0.44 µM		0.97 µM and 1.35 µM			
Cc1c[n+](C)c2ccccc2c1Nc1ccc(C(=O)Nc2ccc(Nc3cc[n+](C)cc3)cc2)cc1.[Br-].[Br-]	4.9 µM	4.5 µM	<1.4	15 µM	5	0.6	
Cc1cc(C(=O)Nc2ccc(C(=O)Nc3ccc[n+](C)c3)cc2)c(C)cc1C(=O)Nc1ccc(C(=O)Nc2ccc[n+](C)c2)cc1.Cc1ccc(S(=O)(=O)[O-])cc1.Cc1ccc(S(=O)(=O)[O-])cc1	7.8 µM	8.1 µM	1.43	14 µM	1.7	0.48	
C[n+]1cccc(NC(=O)c2ccc(NC(=O)c3ccc(C(=O)Nc4ccc(C(=O)Nc5ccc[n+](C)c5)c(Cl)c4)cc3)cc2Cl)c1.Cc1ccc(S(=O)(=O)[O-])cc1.Cc1ccc(S(=O)(=O)[O-])cc1	1.4 µM	0.99 µM	<1.4	2.1 µM	26	0.2	
C[n+]1ccc(Nc2ccc(NC(=O)c3ccc(Nc4nc[n+](C)c5ccc(N)cc45)cc3)cc2)cc1.Cc1ccc(S(=O)(=O)[O-])cc1.Cc1ccc(S(=O)(=O)[O-])cc1	0.88 µM	0.5 µM	<1.4	1.7 µM	3	0.13	
Cn1cc(NC(=O)c2cc(NC(=O)c3cc(NC=O)cn3C)cn2C)cc1C(=O)NCCC(=N)N	0.68 µM	0.07 µM		2.4 µM			
C/C(=C(/C)c1ccc(Nc2cc[n+](C)c3ccc(N)cc23)cc1)c1ccc(Nc2cc[n+](C)cc2)cc1.[Cl-].[Cl-]	1.7 µM	0.9 µM	1.53	2.6 µM	5.5	0.96	
CCCCC[n+]1cccc(NC(=O)c2ccc(NC(=O)c3ccc(C(=O)Nc4ccc(C(=O)Nc5ccc[n+](CCCCC)c5)cc4)cc3)cc2)c1.Cc1ccc(S(=O)(=O)[O-])cc1.Cc1ccc(S(=O)(=O)[O-])cc1	0.38 µM	0.42 µM	<1.4	0.92 µM	70	0.9	
C[n+]1ccc(Nc2ccc(NC(=O)CCCCCC(=O)Nc3ccc(Nc4cc[n+](C)cc4)cc3)cc2)cc1.[Br-].[Br-]	42 µM	22 µM	<1.4	77 µM	30	0.49	
CC[n+]1cccc2cc(NC(=O)COc3ccc(C(=O)Nc4ccc5c(ccc[n+]5CC)c4)cc3)ccc21.Cc1ccc(S(=O)(=O)[O-])cc1.Cc1ccc(S(=O)(=O)[O-])cc1			1.4		4	-0.11	4
